Experiments:
EGFR (Del19/T790M/C797S) = experiment: Cell degradation HTRF assay, BaF3-DTC cells; format: cell-based; details: 16 h treatment; for DC50: HTRF; for DTC Dmax (%): maximum percentage of degradation
Description: (§1) Cell Degradation of Example 1-28
(§2) BaF3-LTC (L858R/T790M/C797S) and BaF3-DTC (Del19/T790M/C797S) cells are treated with compounds diluted in 0.2% DMSO cell culture medium and incubate for 16 h, 37° C., 5% CO2. The final concentration of compounds in all assay is start with 10 uM, 4-fold dilution, total 8 doses were included.
(§3) After 16 h treatment, add HTRF lysis buffer to each well; seal the plate and incubate 1 hour at room temperature on a plate shaker; Once the cells are lysed, 16 μL of cell lysate are transferred to a PE 384-well HTRF detection plate; 4 μL of pre-mixed HTRF antibodies are added to each well; Cover the plate with a plate sealer, spin 1000 rpm for 1 min, Incubate overnight at room temperature; Read on BMG PheraStar with HTRF protocol (337 nm-665 nm-620 nm). The inhibition (degradation) percentage of the compound was calculated by the following equation:
(§4) Inhibition percentage of Compound=100−100×(Signal−low control)/(High control−low control), wherein signal=each test compound group.
(§5) High control=Cell group with added DMSO and without compound, indicating microplate readings without EGFR degradation;
(§6) Dmax is the maximum percentage of inhibition (degradation).
(§7) The IC50 (DC50) value of a compound can be obtained by fitting the following equation
(§8) Y=Bottom+(TOP−Bottom)/(1+((C50/X)^hillslope))
(§9) Wherein, X and Y are known values, and IC50, Hillslope, Top and Bottom are the parameters obtained by fitting with software. Y is the inhibition percentage (calculated from the equation), X is the concentration of the compound; IC50 is the concentration of the compound when the 50% inhibition is reached. The smaller the IC50 value is, the stronger the inhibitory ability of the compound is. Vice versa, the higher the IC50 value is, the weaker the ability the inhibitory ability of the compound is; Hillslope represents the slope of the fitted curve, generally around 1*; Bottom represents the minimum value of the curve obtained by data fitting, which is generally 000±20%; Top represents the maximum value of the curve obtained by data fitting, which is generally 100%±20%. The experimental data were fitted by calculating and analyzing with Dotmatics data analysis software. When Dmax<50%, DC50 will be automatically assigned as larger than […].

EGFR (L858R/T790M/C797S) = EGFR (L858R/T790M/C797S) (Homo sapiens, UniProt P00533, C797S/L858R/T790M); experiment: Cell degradation HTRF assay, BaF3-LTC cells; format: cell-based; parameters: expressed in transfected cells; host or cells: BaF3-LTC; details: 16 h treatment; for DC50: HTRF; for Dmax: maximum percentage of degradation
Description: as §1, §2, §3, §4, §5, §6, §7, §8, §9

Sequence of EGFR (L858R/T790M/C797S) (P00533 25-1210 T790M/C797S/L858R): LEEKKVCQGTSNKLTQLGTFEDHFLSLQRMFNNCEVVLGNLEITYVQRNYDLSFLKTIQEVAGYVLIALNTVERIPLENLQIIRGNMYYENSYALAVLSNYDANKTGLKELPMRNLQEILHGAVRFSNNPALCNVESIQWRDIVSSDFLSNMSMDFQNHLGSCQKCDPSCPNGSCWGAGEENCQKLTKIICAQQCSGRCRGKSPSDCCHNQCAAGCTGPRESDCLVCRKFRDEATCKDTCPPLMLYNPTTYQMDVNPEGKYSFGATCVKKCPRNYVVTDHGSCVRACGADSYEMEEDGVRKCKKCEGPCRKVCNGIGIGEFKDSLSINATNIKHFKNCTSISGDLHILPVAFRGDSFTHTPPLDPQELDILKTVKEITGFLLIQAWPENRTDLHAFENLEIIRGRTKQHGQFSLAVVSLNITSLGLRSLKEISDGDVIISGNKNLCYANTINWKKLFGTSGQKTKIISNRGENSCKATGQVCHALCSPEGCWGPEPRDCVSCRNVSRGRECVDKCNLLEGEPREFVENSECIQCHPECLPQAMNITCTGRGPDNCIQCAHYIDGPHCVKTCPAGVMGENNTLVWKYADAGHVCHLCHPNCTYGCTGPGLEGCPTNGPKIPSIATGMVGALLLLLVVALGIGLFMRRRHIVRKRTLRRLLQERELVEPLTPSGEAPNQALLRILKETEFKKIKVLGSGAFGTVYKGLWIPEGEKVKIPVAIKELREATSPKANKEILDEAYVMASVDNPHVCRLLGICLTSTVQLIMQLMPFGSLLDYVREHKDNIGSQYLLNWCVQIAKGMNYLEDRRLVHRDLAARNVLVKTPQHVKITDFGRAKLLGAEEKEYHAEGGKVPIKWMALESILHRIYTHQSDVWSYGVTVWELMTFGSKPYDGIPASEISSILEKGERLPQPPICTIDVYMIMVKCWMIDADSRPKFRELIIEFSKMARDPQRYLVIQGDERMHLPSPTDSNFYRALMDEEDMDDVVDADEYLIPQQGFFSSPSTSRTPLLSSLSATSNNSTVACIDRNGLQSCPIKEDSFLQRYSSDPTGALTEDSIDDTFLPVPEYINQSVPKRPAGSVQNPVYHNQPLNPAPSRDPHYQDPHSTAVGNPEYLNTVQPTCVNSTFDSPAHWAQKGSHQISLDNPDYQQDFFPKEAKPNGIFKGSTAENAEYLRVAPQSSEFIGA

Structure (SMILES)	DC50 (EGFR (Del19/T790M/C797S)) [nM]	DTC Dmax (%) (EGFR (Del19/T790M/C797S))	DC50 (EGFR (L858R/T790M/C797S)) [nM]	Dmax (EGFR (L858R/T790M/C797S)) [%]
CCc1cc(Nc2ncc(Br)c(Nc3cnc4ccccc4c3P(C)(C)=O)n2)c(OC)cc1N1CCC(N2CCN(CCC3CCN(c4cc(F)c(C5CCC(=O)NC5=O)c(F)c4)CC3)CC2)CC1 (centres unmarked) [Example 1, 3-(4-(4-(2-(4-(1-(4-((5-bromo-4-((4-(dimethylphosphoryl)quinolin-3-yl)amino)pyrimidin-2-yl)amino)-2-ethyl-5-methoxyphenyl)piperidin-4-yl)piperazin-1-yl)ethyl)piperidin-1-yl)-2,6-difluorophenyl)piperidine-2,6-dione]	10.4	96.55	25	90.7
CCc1cc(Nc2ncc(Br)c(Nc3cnc4ccccc4c3P(C)(C)=O)n2)c(OC)cc1N1CCC(N2CCN(CCc3ccc(C4CCC(=O)NC4=O)c(F)c3)CC2)CC1 (centres unmarked) [Example 2, 3-(4-(2-(4-(1-(4-((5-bromo-4-((4-(dimethylphosphoryl)quinolin-3-yl)amino)pyrimidin-2-yl)amino)-2-ethyl-5-methoxyphenyl)piperidin-4-yl)piperazin-1-yl)ethyl)-2-fluorophenyl)piperidine-2,6-dione]	18.5	86.75	146	85
CCc1cc(Nc2ncc(Br)c(Nc3cnc4ccccc4c3P(C)(C)=O)n2)c(OC)cc1N1CCC(N2CCN(C[C@H]3CCN(c4ccc5c(c4)CN(C4CCC(=O)NC4=O)C5=O)C3)CC2)CC1 (stereo partly drawn) [Example 4, 3-(5-((R)-3-((4-(1-(4-((5-bromo-4-((4-(dimethylphosphoryl)quinolin-3-yl)amino)pyrimidin-2-yl)amino)-2-ethyl-5-methoxyphenyl)piperidin-4-yl)piperazin-1-yl)methyl)pyrrolidin-1-yl)-1-oxoisoindolin-2-yl)piperidine-2,6-dione]	3.94	91.36	7.75	90.5
CCc1cc(Nc2ncc(Br)c(Nc3cnc4cccnc4c3P(C)(C)=O)n2)c(OC)cc1N1CCC(N2CCN(CCc3cc(F)c(C4CCC(=O)NC4=O)c(F)c3)CC2)CC1 (centres unmarked) [Example 7, 3-(4-(2-(4-(1-(4-((5-bromo-4-((4-(dimethylphosphoryl)-1,5-naphthyridin-3-yl)amino)pyrimidin-2-yl)amino)-2-ethyl-5-methoxyphenyl)piperidin-4-yl)piperazin-1-yl)ethyl)-2,6-difluorophenyl)piperidine-2,6-dione]	15.5	93.86	45.3	82.7
CCc1cc(Nc2ncc(Br)c(Nc3cnc4c(C)cccc4c3P(C)(C)=O)n2)c(OC)cc1N1CCC(N2CCN(CCC3CCN(c4cc(F)c(C5CCC(=O)NC5=O)c(F)c4)CC3)CC2)CC1 (centres unmarked) [Example 8, 3-(4-(4-(2-(4-(1-(4-((5-bromo-4-((4-(dimethylphosphoryl)-8-methylquinolin-3-yl)amino)pyrimidin-2-yl)amino)-2-ethyl-5-methoxyphenyl)piperidin-4-yl)piperazin-1-yl)ethyl)piperidin-1-yl)-2,6-difluorophenyl)piperidine-2,6-dione]	11.8	96.88	30.2	89.6
CCc1cc(Nc2ncc(Br)c(Nc3cnc4cccnc4c3P(C)(C)=O)n2)c(OC)cc1N1CCC(N2CCN(CCC3CCN(c4cc(F)c(C5CCC(=O)NC5=O)c(F)c4)CC3)CC2)CC1 (centres unmarked) [Example 9, 3-(4-(4-(2-(4-(1-(4-((5-bromo-4-((4-(dimethylphosphoryl)-1,5-naphthyridin-3-yl)amino)pyrimidin-2-yl)amino)-2-ethyl-5-methoxyphenyl)piperidin-4-yl)piperazin-1-yl)ethyl)piperidin-1-yl)-2,6-difluorophenyl)piperidine-2,6-dione]	12.7	96.14	29.3	88
CCc1cc(Nc2ncc(Br)c(Nc3cnc4c(C)cccc4c3P(C)(C)=O)n2)c(OC)cc1N1CCC(N2CCN(CCc3cc(F)c(C4CCC(=O)NC4=O)c(F)c3)CC2)CC1 (centres unmarked) [Example 10, 3-(4-(2-(4-(1-(4-((5-bromo-4-((4-(dimethylphosphoryl)-8-methylquinolin-3-yl)amino)pyrimidin-2-yl)amino)-2-ethyl-5-methoxyphenyl)piperidin-4-yl)piperazin-1-yl)ethyl)-2,6-difluorophenyl)piperidine-2,6-dione]	24.8	88.58	219	88.4
CCc1cc(Nc2ncc(Br)c(Nc3cnc4ccccc4c3P(C)(C)=O)n2)c(OC)cc1N1CCC(N2CCN(CCc3cccc4c3cnn4C3CCC(=O)NC3=O)CC2)CC1 (centres unmarked) [Example 12, 3-(4-(2-(4-(1-(4-((5-bromo-4-((4-(dimethylphosphoryl)quinolin-3-yl)amino)pyrimidin-2-yl)amino)-2-ethyl-5-methoxyphenyl)piperidin-4-yl)piperazin-1-yl)ethyl)-1H-indazol-1-yl)piperidine-2,6-dione]	14.4	91.82	68.8	89.1
CCc1cc(Nc2ncc(Br)c(Nc3cnc4ccccc4c3P(C)(C)=O)n2)c(OC)cc1N1CCC(N2CCN(CCc3cccc4nn(C5CCC(=O)NC5=O)cc34)CC2)CC1 (centres unmarked) [Example 14, 3-(4-(2-(4-(1-(4-((5-bromo-4-((4-(dimethylphosphoryl)quinolin-3-yl)amino)pyrimidin-2-yl)amino)-2-ethyl-5-methoxyphenyl)piperidin-4-yl)piperazin-1-yl)ethyl)-2H-indazol-2-yl)piperidine-2,6-dione]	186	81.73	546	84.6
CCc1cc(Nc2ncc(Br)c(Nc3cnc4ccccc4c3P(C)(C)=O)n2)c(OC)cc1N1CCC(N2CCN(C(=O)C3CCN(c4ccc5c(c4)n(C)c(=O)n5C4CCC(=O)NC4=O)CC3)CC2)CC1 (centres unmarked) [Example 15, 3-(5-(4-(4-(1-(4-((5-bromo-4-((4-(dimethylphosphoryl)quinolin-3-yl)amino)pyrimidin-2-yl)amino)-2-ethyl-5-methoxyphenyl)piperidin-4-yl)piperazine-1-carbonyl)piperidin-1-yl)-3-methyl-2-oxo-2,3-dihydro-1H-benzo[d]imidazol-1-yl)piperidine-2,6-dione]	1.23	94.57	3.23	86.4
CCc1cc(Nc2ncc(Br)c(Nc3cnc4ccccc4c3P(C)(C)=O)n2)c(OC)cc1N1CCC(N2CCN(C(=O)C3CN(c4ccc5c(c4)CN(C4CCC(=O)NC4=O)C5=O)C3)CC2)CC1 (centres unmarked) [Example 16, 3-(5-(3-(4-(1-(4-((5-bromo-4-((4-(dimethylphosphoryl)quinolin-3-yl)amino)pyrimidin-2-yl)amino)-2-ethyl-5-methoxyphenyl)piperidin-4-yl)piperazine-1-carbonyl)azetidin-1-yl)-1-oxoisoindolin-2-yl)piperidine-2,6-dione]	2.14	96.98	5.05	89.7
